# Source: PMC8154566, “Scaffold-Hopping Strategy on a Series of Proteasome Inhibitors Led to a Preclinical Candidate for the Treatment of Visceral Leishmaniasis” (Journal of Medicinal Chemistry, 2021)
# Where two headings read alike, the source gives them in different places.
# What was measured:
# [1] = FaSSIF (fasted state simulated intestinal fluid) solubility; assay type: physicochemical
# Procedure: (§1) Intramacrophage L. donovani Assay. This assay was conducted as previously described, except for compound exposure time, which was 96 h instead of 72 h.4
# (§2) Intrinsic Clearance. This assay was conducted as previously described.5 Aqueous Solubility. This assay was conducted as previously described.6
# (§3) FaSSIF Solublity. This assay was conducted as previously described.5,7
# (§4) In vivo Mouse Efficacy Studies. In vivo studies were carried out as previously described, with minor modifications.7 Briefly: Control drug used was Miltefosine (30 mg/kg orally, twice daily for 5 days), vehicle used was 10% (v/v) dimethyl sulfoxide (DMSO), 40% polyethylene glycol 400, and 50% deionized water (10 Ml/kg orally, twice daily for 5 days) and mice were treated with test compound intraperitoneally (50 mg/kg twice daily for 5 days). 5
# (§5) All regulated procedures on living animals were carried out under the authority of a project license issued by the Home Office under the Animals (Scientific Procedures) Act 1986, as amended in 2012 (and in compliance with EU Directive EU/2010/63). Infected animals had access to food and water ad libitum and were housed under a 12 hour light/dark photoperiod. Animals used in these experiments were female NMRI and Balb/c mice (Harlan, UK).
# (§6) Test compound DDD01008714 was dosed orally (P.O.) at 10 mg free base/kg (dose volume 10 mL/kg; dose vehicle: 10% (vol/vol) dimethyl sulfoxide (DMSO), 40% polyethylene glycol 400 (PEG400) and 50% deionized water) to female NMRI mice (n = 3) or intravenously (I.V.) at 3 mg free base/kg (dose volume 5 mL/kg; dose vehicle: 10% (vol/vol) dimethyl sulfoxide (DMSO) and 90% Saline) to female Balb/c mice (n = 3). Blood samples (10 μL) where taken from the tail vein of […]
# [2] = test system: L. donovani amastigotes; experiment: INMAC assay: intramacrophage L. donovani in differentiated THP-1 cells; assay type: cell-based, Leishmania donovani; settings: for loss of potency: INMAC, relative to compound 4; for IC50 / EC50: Leishmania donovani; for IC50: THP-1, read-out: LdInMac pIC50 (converted); for EC50: THP-1
# Procedure: (§7) Intramacrophage L. donovani Assay. This assay was conducted as previously described, except for […]
# [3] = test system: THP-1 cells; experiment: THP-1 host cell read-out of the INMAC assay; assay type: cell-based; settings: Homo sapiens
# Procedure: as §7
# [4] = Mouse liver microsomal intrinsic clearance; assay type: in vitro ADME; settings: for Mouse CLi: mouse liver microsomes; for Cli (mouse, ml/min/g): supplementary csv
# Procedure: as §1, §2, §3, §4, §5, §6
# [5] = Kinetic aqueous solubility by CLND; assay type: physicochemical
# Procedure: We had successfully used these criteria in the hit to lead stage to identify compounds for in vivo proof-of-concept studies in another program, which subsequently led to the identification of preclinical candidate DDD853651/GSK3186899 active against CRK12.[7] […] A pharmacokinetic (PK) study was thus performed, dosed at 10 mg/kg po and 3 mg/kg iv. […] With the limited knowledge of the PK/PD drivers for the treatment of VL, we considered this to be a suitable profile for the progression of 4 into a previously reported mouse efficacy model of VL,[6],[7],[17],[18] where it was dosed twice daily at 50 mg/kg ip in order to further maximize exposure and give the best chance of achieving proof-of-concept.
# as §1, §2, §3, §4, §5, §6
# [6] = Table 2, at least three replicates, SD ≤0.4, read-out: INMAC (pEC50) (converted)
# [7] = THP-1, Table 2, read-out: THP-1 (pEC50) (converted)
# [8] = THP-1, supplementary csv, read-out: THP1 pIC50 (converted)
# [9] = Table 2, kinetic, CLND, read-out: Aq. solubility
# [10] = supplementary csv, read-out: Aqueous Solubility
# [11] = Table 5, at least three replicates, SD ≤0.4, read-out: INMAC pEC50 (converted)
# [12] = THP-1, Table 5, read-out: THP-1 pEC50 (converted)
# [13] = Table 5, kinetic, CLND, read-out: Aq. solubility
# [14] = THP-1, read-out: THP1 pIC50 (converted)
# [15] = Table 6, at least three replicates, SD ≤0.4, read-out: INMAC pEC50 (converted)
# [16] = THP-1, Table 6, read-out: THP-1 pEC50 (converted)
# [17] = Table 6, kinetic, CLND, read-out: Aq. solubility
smiles,measurement,setting,value
"O=C(Nc1nccc(-c2cn3cc(N4CCOCC4)cnc3n2)n1)N1CCCC1 [Compound 12, N-(4-(6-Morpholinoimidazo[1,2-a]pyrimidin-2-yl)pyrimidin-2-yl)pyrrolidine-1-carboxamide]",solubility,[1]; supplementary csv,> 1000 µM
same,loss of potency,[2],> 10 fold
same,IC50,[2],> 50.1 µM
same,EC50,[2]; [6],> 50.1 µM
same,EC50,[3]; [7],> 50.1 µM
same,IC50,[3]; [8],> 50.1 µM
same,Mouse CLi,[4]; Table 2,<0.5 mL/min/g
same,"Cli (mouse, ml/min/g)",[4],<0.5 mL/min/g
same,solubility,[5]; [9],≥ 470 µM
"O=C(Nc1cnnc(-c2cn3cc(N4CCOCC4)cnc3n2)c1)N1CCCC1 [Compound 13, N-(6-(6-Morpholinoimidazo[1,2-a]pyrimidin-2-yl)pyridazin-4-yl)pyrrolidine-1-carboxamide]",solubility,[1]; Table 2,> 100 µM
same,solubility at 4 h,"[1]; pH 6.5, Table 2",286 µM
same,solubility,[1]; supplementary csv,290 µM
same,loss of potency,[2],> 10 fold
same,IC50,[2],> 50.1 µM
same,EC50,[2]; [6],> 50.1 µM
same,EC50,[3]; [7],> 50.1 µM
same,IC50,[3]; [8],> 50.1 µM
same,Mouse CLi,[4]; Table 2,<0.5 mL/min/g
same,"Cli (mouse, ml/min/g)",[4],<0.5 mL/min/g
same,solubility,[5]; [9],355 µM
same,solubility,[5]; [10],360 µM
"O=C(Nc1ccc(F)c(-c2cn3ncc(N4CCOCC4)cc3n2)c1)N1CCCC1 [Compound 15, N-[4-Fluoro-3-(7-morpholinoimidazo[1,2-b]pyridazin-2-yl)phenyl]pyrrolidine-1-carboxamide]",solubility at 4 h,"[1]; pH 6.5, Table 5",22 µM
same,IC50,[2],> 50.1 µM
same,EC50,[2]; [11],> 50.1 µM
same,INMAC pEC50,"[2]; Table 5, at least three replicates, SD ≤0.4",inactive
same,EC50,[3]; [12],> 50.1 µM
same,IC50,[3]; [8],> 50.1 µM
same,Mouse CLi,[4]; Table 5,2.0 mL/min/g
same,"Cli (mouse, ml/min/g)",[4],2 mL/min/g
same,solubility,[5]; [13],58 µM
"O=C(Nc1ccc(F)c(-c2cc3cc(N4CCOCC4)cnc3o2)c1)N1CCCC1 [Compound 20, N-(4-Fluoro-3-(5-morpholinofuro[2,3-b]pyridin-2-yl)phenyl)pyrrolidine-1-carboxamide]",solubility at 4 h,"[1]; pH 6.5, Table 5",7 µM
same,EC50,[2]; [11],0.0501 µM
same,EC50,[3]; [12],> 50.1 µM
same,IC50,[3]; [8],> 50.1 µM
same,Mouse CLi,[4]; Table 5,4.0 mL/min/g
same,"Cli (mouse, ml/min/g)",[4],4 mL/min/g
same,solubility,[5]; [13],25 µM
"O=C(Nc1ccc(F)c(-c2cc3nc(N4CCOCC4)cnc3o2)c1)N1CCCC1 [Compound 21, N-[4-Fluoro-3-(2-morpholinofuro[2,3-b]pyrazin-6-yl)phenyl]pyrrolidine-1-carboxamide]",solubility at 4 h,"[1]; pH 6.5, Table 5",15 µM
same,EC50,[2]; [11],0.158 µM
same,EC50,[3]; [12],> 50.1 µM
same,IC50,[3]; [8],> 50.1 µM
same,Mouse CLi,[4]; Table 5,2.8 mL/min/g
same,"Cli (mouse, ml/min/g)",[4],2.8 mL/min/g
same,solubility,[5]; [13],70 µM
"O=C(Nc1ccc(F)c(-c2cn3nc(N4CCOCC4)cnc3n2)c1)N1CCCC1 [Compound 23, N-(4-Fluoro-3-(2-morpholinoimidazo[1,2-b][1,2,4]triazin-6-yl)phenyl)pyrrolidine-1-carboxamide]",solubility,[1]; supplementary csv,140 µM
same,EC50,[2]; [11],0.398 µM
same,IC50,[3]; [14],> 50.1 µM
same,EC50,[3]; [12],> 50.1 µM
same,Mouse CLi,[4]; Table 5,0.9 mL/min/g
same,"Cli (mouse, ml/min/g)",[4],0.9 mL/min/g
same,solubility,[5]; [13],126 µM
same,solubility,[5]; [10],130 µM
"O=C(Nc1ccc(F)c(-c2nc3ncc(N4CCOCC4)cn3n2)c1)N1CCCC1 [Compound 25, N-(4-Fluoro-3-(6-morpholino-[1,2,4]triazolo[1,5-a]pyrimidin-2-yl)phenyl)pyrrolidine-1-carboxamide]",solubility at 4 h,"[1]; pH 6.5, Table 5",74 µM
same,solubility,[1]; supplementary csv,73 µM
same,EC50,[2]; [11],0.631 µM
same,IC50,[3]; [14],> 50.1 µM
same,EC50,[3]; [12],> 50.1 µM
same,Mouse CLi,[4]; Table 5,<0.5 mL/min/g
same,"Cli (mouse, ml/min/g)",[4],0.5 mL/min/g
same,solubility,[5]; [13],354 µM
same,solubility,[5]; [10],400 µM
"O=C(Nc1ccc(F)c(-c2cc3cc(N4CCOCC4)cnn3n2)c1)N1CCCC1 [Compound 26, N-(4-Fluoro-3-(5-morpholinopyrazolo[1,5-b]pyridazin-2-yl)phenyl)pyrrolidine-1-carboxamide]",solubility at 4 h,"[1]; pH 6.5, Table 5",12 µM
same,EC50,[2]; [11],0.158 µM
same,EC50,[3]; [12],> 50.1 µM
same,IC50,[3]; [8],> 50.1 µM
same,Mouse CLi,[4]; Table 5,1.7 mL/min/g
same,"Cli (mouse, ml/min/g)",[4],1.7 mL/min/g
same,solubility,[5]; [13],51 µM
"O=C(Nc1ccc(F)c(-c2ccn3c(-c4ccccc4)cnc3n2)c1)N1CCCC1 [Compound 28, N-(4-Fluoro-3-(3-phenylimidazo[1,2-a]pyrimidin-7-yl)phenyl)pyrrolidine-1-carboxamide]",solubility at 4 h,"[1]; pH 6.5, Table 6",7 µM
same,solubility,[1]; supplementary csv,8 µM
same,EC50,[2]; [15],0.251 µM
same,EC50,[3]; [16],50.1 µM
same,IC50,[3]; [8],50.1 µM
same,Mouse CLi,[4]; Table 6,2.5 mL/min/g
same,"Cli (mouse, ml/min/g)",[4],2.5 mL/min/g
same,solubility,[5]; [17],39 µM
"O=C(Nc1ccc(F)c(-c2ccn3c(-c4ccccn4)cnc3n2)c1)N1CCCC1 [Compound 29, N-(4-Fluoro-3-(3-(pyridin-2-yl)imidazo[1,2-a]pyrimidin-7-yl)phenyl)pyrrolidine-1-carboxamide]",solubility at 4 h,"[1]; pH 6.5, Table 6",273 µM
same,solubility,[1]; supplementary csv,270 µM
same,EC50,[2]; [15],0.398 µM
same,EC50,[3]; [16],> 50.1 µM
same,IC50,[3]; [8],> 50.1 µM
same,Mouse CLi,[4]; Table 6,1.8 mL/min/g
same,"Cli (mouse, ml/min/g)",[4],1.8 mL/min/g
same,solubility,[5]; [17],74 µM
"CC(C)c1cnc2nc(-c3cc(NC(=O)N4CCCC4)ccc3F)ccn12 [Compound 30, N-(4-Fluoro-3-(3-isopropylimidazo[1,2-a]pyrimidin-7-yl)phenyl)pyrrolidine-1-carboxamide]",solubility at 4 h,"[1]; pH 6.5, Table 6",71 µM
same,solubility,[1]; supplementary csv,70 µM
same,EC50,[2]; [15],1.26 µM
same,EC50,[3]; [16],50.1 µM
same,IC50,[3]; [8],50.1 µM
same,Mouse CLi,[4]; Table 6,4.6 mL/min/g
same,"Cli (mouse, ml/min/g)",[4],4.6 mL/min/g
same,solubility,[5]; [17],231 µM
same,solubility,[5]; [10],240 µM
"CC(C)Cc1cnc2nc(-c3cc(NC(=O)N4CCCC4)ccc3F)ccn12 [Compound 31, N-(4-Fluoro-3-(3-isobutylimidazo[1,2-a]pyrimidin-7-yl)phenyl)pyrrolidine-1-carboxamide]",solubility at 4 h,"[1]; pH 6.5, Table 6",178 µM
same,solubility,[1]; supplementary csv,180 µM
same,EC50,[2]; [15],0.501 µM
same,EC50,[3]; [16],63.1 µM
same,IC50,[3]; [8],63.1 µM
same,Mouse CLi,[4]; Table 6,15 mL/min/g
same,"Cli (mouse, ml/min/g)",[4],15 mL/min/g
same,solubility,[5]; [17],182 µM
same,solubility,[5]; [10],180 µM
"O=C(Nc1ccc(F)c(-c2ccn3c(CN4CCOCC4)cnc3n2)c1)N1CCCC1 [Compound 32, N-(4-Fluoro-3-(3-(morpholinomethyl)imidazo[1,2-a]pyrimidin-7-yl)phenyl)pyrrolidine-1-carboxamide]",solubility at 4 h,"[1]; pH 6.5, Table 6",728 µM
same,solubility,[1]; supplementary csv,730 µM
same,EC50,[2]; [15],10 µM
same,EC50,[3]; [16],63.1 µM
same,IC50,[3]; [8],63.1 µM
same,Mouse CLi,[4]; Table 6,16 mL/min/g
same,"Cli (mouse, ml/min/g)",[4],16 mL/min/g
same,solubility,[5]; [17],≥ 348 µM
"O=C(Nc1ccc(F)c(-c2ccn3c(N4CCCCC4)cnc3n2)c1)N1CCCC1 [Compound 34, N-(4-Fluoro-3-(3-(piperidin-1-yl)imidazo[1,2-a]pyrimidin-7-yl)phenyl)pyrrolidine-1-carboxamide]",solubility at 4 h,"[1]; pH 6.5, Table 6",32 µM
same,EC50,[2]; [15],0.501 µM
same,EC50,[3]; [16],50.1 µM
same,IC50,[3]; [8],50.1 µM
same,Mouse CLi,[4]; Table 6,8.4 mL/min/g
same,"Cli (mouse, ml/min/g)",[4],8.4 mL/min/g
same,solubility,[5]; [17],358 µM
same,solubility,[5]; [10],360 µM
"O=C(Nc1ccc(F)c(-c2ccn3c(N4CCNCC4)cnc3n2)c1)N1CCCC1 [Compound 35, N-(4-Fluoro-3-(3-(piperazin-1-yl)imidazo[1,2-a]pyrimidin-7-yl)phenyl)pyrrolidine-1-carboxamide]",solubility at 4 h,"[1]; pH 6.5, Table 6",5 µM
same,IC50,[2],> 50.1 µM
same,EC50,[2]; [15],> 50.1 µM
same,EC50,[3]; [16],> 50.1 µM
same,IC50,[3]; [8],> 50.1 µM
same,Mouse CLi,[4]; Table 6,<0.5 mL/min/g
same,"Cli (mouse, ml/min/g)",[4],<0.5 mL/min/g
same,solubility,[5]; [17],≥ 333 µM
same,solubility,[5]; [10],≥ 330 µM
